# From patent publication US20260250278A1, “PHENYL-SUBSTITUTED DIHYDRONAPHTHYRIDINE COMPOUNDS, AND PREPARATION AND USE THEREOF” (SUZHONG PHARMACEUTICAL GROUP CO., LTD., priority 2022, published 2026)
# Experiments:
# [1] = mouse, in vivo
# From the text: In particular, a maximum tolerated dose of the compound 36 after repeated administration for 14 days is more than 2.7 times that of the compound 62, especially a safety window of the dose is more than 230 times that of the equivalent dose, so that the compound has high safety.
# [2] = molecular target: T1, mineralocorticoid receptor (MR) (Homo sapiens, UniProt P08235); experiment: MR Gal4-LBD luciferase reporter gene assay in HEK293T cells (antagonism of 0.8 nM aldosterone); type: cell-based
# T1 construct: expressed in transfected cells
# T1 sequence (P08235 726-964 limits assumed): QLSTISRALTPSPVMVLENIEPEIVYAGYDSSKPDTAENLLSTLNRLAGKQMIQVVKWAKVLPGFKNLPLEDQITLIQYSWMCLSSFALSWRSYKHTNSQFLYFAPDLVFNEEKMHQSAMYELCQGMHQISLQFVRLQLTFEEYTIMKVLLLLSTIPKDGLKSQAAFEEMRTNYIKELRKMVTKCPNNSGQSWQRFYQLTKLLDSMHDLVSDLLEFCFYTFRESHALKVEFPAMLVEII
# From the text: By the characteristic of chemiluminescence reaction produced by combination of luciferase and substrate, a Gal4 DNA binding domain (DBD) fused plasmid containing a mineralocorticoid receptor (MR) ligand binding domain (LBD) and a firefly luciferase reporter gene plasmid under the control of Gal4 UAS (upstream activation sequence) were transfected into human embryonic kidney cells (HEK293). Changes of […] were judged by a level of firefly luciferase activity.
# All compounds were dissolved in DMSO to prepare a 25 mM stock solution, and stored in a refrigerator at −20° C.
# • 1) A compound to be tested was subjected to 3-times gradient dilution with the DMSO, with 10 concentration gradients and an initial concentration of 10 mM. • 2) A positive compound (Finerenone) was subjected to 3-times gradient dilution with the DMSO, with 10 concentration gradients and an initial concentration of 1 mM. • 3) 1000× positive control (1 mM, Finerenone) and 1000× negative control (100% DMSO) were prepared. • 4) A compound plate was sealed and shaken for 5 minutes.
# • 5) All cells were cultured by ATCC standard operation, and HEK293T was experimented in an exponential growth phase. • 6) A culture medium supernatant was gently discarded. The cells were washed with PBS twice.
# (3) The cells were digested with pancreatin digestive juice, the digestion was stopped with a complete culture solution, and then the cells were collected and counted.
# (4) 6×10^6 HEK293T cells were inoculated into a 100 mm cell culture dish.
# (5) The culture dish inoculated with the cells was cultured in a 5% CO2 incubator at 37° C. for 16 hours overnight.
# • 1) Lipofectamine® 3000&P3000 transfection reagents were placed at room temperature. • 2) The Lipofectamine® 3000 reagent was added into an Opti-MEM™ culture medium, and meanwhile, the P3000, the plasmid and the Opti-MEM™ culture medium were added into another tube, taking care not to touch the tube wall. • 3) The mixture was mixed evenly by a pipette, and allowed to stand at room temperature for 5 minutes. • 4) The plasmid was added into the diluted transfection reagent, mixed evenly by a pipette, and allowed to stand at room temperature for 20 minutes. • 5) The transfection reagent mixed with the plasmid was added into a […] cell culture dish. • 6) The culture dish was cultured in a 5% CO2 incubator at 37° C. for 5 hours to 6 hours.
# • 1) 25 nL of diluted compound was transferred to a cell culture plate with Echo655. • 2) The cells (referring to step 1.3) were inoculated into a 384 cell culture plate, with 17,000 cells, 25 μL of phenol red-free DMEM culture medium containing 5% CFBS and 0.8 nM Aldosteron per well.
# (3) The cell culture plate was cultured in a 5% CO2 incubator at 37° C. for 18 hours to 20 hours overnight.
# • 1) A Britelite plus detection reagent was placed at room temperature. 2) The 384 cell plate was placed at room temperature. • 3) 25 μL of Britelite plus detection reagent was added into each well of the cell culture plate. • 4) A luminescence was detected with Envision.
# • 1) a firefly luciferase signal was obtained by reading the Luminescence to calculate an inhibition rate; • 2) % inhibition rate=100−[(RLU compound−avgRLU positive control)/(RLU negative control−avgRLU positive control)×100%, wherein the avgRLU positive control was an average value of Luminescences of all positive control wells in the whole plate; the avgRLU negative control was an average value of Luminescences of all negative control wells in the whole plate; and the RLU compound was Luminescence values of compounds to be tested with different concentrations; and • 3) IC50 of the compound was calculated by Graphpad8.0 Drawing software.
# [3] = system: diabetic nephropathy mouse model; experiment: Pharmacodynamic effects on diabetic nephropathy mouse model; type: in vivo; settings: KK-Ay mice
# Procedure: The pharmacodynamic effects of the compounds 36 and 62 on the diabetic nephropathy mouse model were evaluated.
# • Strain: C57BL/6 mice, and KK-Ay mice • Weeks of age: the animals were raised to 6 weeks to 8 weeks of age, and the experiment was started when the animals were 7 weeks to 9 weeks of age • Sex: male • Weight: C57BL/6 mice: 21 g to 23 g, and KK-Ay mice: 25 g to 30 g • Number: 72 experimental animals
# On the day of administration, the animals were randomly divided into 9 groups according to their weights, comprising a model group (KK-Ay+solvent), a Finerenone group (KK-Ay+Finerenone: 3 mg/kg), a low-dose compound 62 group (KK-Ay+compound 62: 1 mg/kg), a middle-dose compound 62 group (KK-Ay+compound 62: 3 mg/kg) and high-dose compound 62 group (KK-Ay+compound 62: 10 mg/kg), a low-dose compound 36 group (KK-Ay+compound 36: 1 mg/kg), a middle-dose compound 36 group (KK-Ay+compound 36: 3 mg/kg) and a high-dose compound 36 group (KK-Ay+compound 36: 10 mg/kg). Specific grouping and administration schemes referred to Table 70-2.
# When the experiment was started, 24-hour urine of the mice was collected by a metabolic cage in 2nd, 4th, 6th and 8th weeks before and after modeling, and microalbumin (MALB) and creatinine (CREA) contents of the urine were detected by CANON TBA-120FR automatic blood biochemistry to calculate (MALB/CREA).
# When the experiment was ended, the mice were euthanized, the blood was taken by heart puncture and put into an anticoagulant-free EP tube, allowed to stand at room temperature for 0.5 hour, and then centrifuged at 4° C. and 6000 g for 15 minutes, and the serum was collected and transferred to a new EP tube, and stored in a refrigerator at −80° C. An insulin content of the serum and serum ions were detected by an ELISA method.
# After the experiment was ended, the kidneys of all animals were dissected and collected, fixed in formalin, embedded and made into sections for PAS staining and Masson staining, and then quantitatively analyzed.
# Experimental results were expressed as “mean value±standard deviation”. The data of each group were statistically analyzed by GraphPad 8.0 software, and p<0.05 was considered to be statistically significant.
# CYP3A4 = CYP3A4 (Homo sapiens, UniProt P08684); experiment: biochemical; type: in vitro ADME
# Chain of CYP3A4 (P08684 2-503 limits assumed): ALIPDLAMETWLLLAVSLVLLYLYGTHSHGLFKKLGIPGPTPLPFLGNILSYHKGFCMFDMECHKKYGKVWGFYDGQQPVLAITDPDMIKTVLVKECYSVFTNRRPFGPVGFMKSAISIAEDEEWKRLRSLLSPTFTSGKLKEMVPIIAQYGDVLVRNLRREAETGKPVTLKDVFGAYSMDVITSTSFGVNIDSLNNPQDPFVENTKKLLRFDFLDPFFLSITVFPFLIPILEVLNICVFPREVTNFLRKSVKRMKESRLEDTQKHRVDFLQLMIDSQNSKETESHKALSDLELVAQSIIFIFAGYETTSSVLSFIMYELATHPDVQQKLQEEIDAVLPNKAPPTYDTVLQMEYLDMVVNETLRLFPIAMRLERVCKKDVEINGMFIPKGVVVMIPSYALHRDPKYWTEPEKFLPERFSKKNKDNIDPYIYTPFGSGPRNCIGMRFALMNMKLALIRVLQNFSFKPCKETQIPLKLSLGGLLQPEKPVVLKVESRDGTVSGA
# [4] = CYP3A4-5M IC50, human CYP3A4, CYP3A4-5M
# [5] = CYP3A4-5T IC50, human CYP3A4, CYP3A4-5T
SMILES,maximum tolerated dose after repeated administration for 14 days (safety in words) [1],IC50 [2],diabetic nephropathy and hypertension [3],urinary protein/creatinine ratio [3],urinary sodium excretion [3],IC50 (CYP3A4; [4]),IC50 (CYP3A4; [5]),"maximum tolerated dose after repeated administration for 14 days, relative to compound 62 [1]",safety window of the dose relative to the equivalent dose ([1]; 14 days),inhibitory effect on CYP3A4 (CYP3A4)
"CCOc1ncc(C)c2c1[C@H](c1ccc(C#N)c3c1OCO3)C(C(N)=O)=C(C)N2 [Example 62, (S)-4-(7-cyanobenzo[d][1,3]dioxol-4-yl)-5-ethoxy-2,8-dimethyl-1,4-dihydro-1,6-naphthyridine-3-formamide]",highly safe,0.0148 µM,improve,significantly reduce,significantly promote,13.7 µM,5.35 µM,–,–,–
"CCOc1ncc(C)c2c1[C@H](c1ccc(C#N)c3c1OCC3)C(C(N)=O)=C(C)N2 [Example 36, (S)-4-(4-cyano-2,3-dihydrobenzofuran-7-yl)-5-ethoxy-2,8-dimethyl-1,4-dihydro-1,6-naphthyridine-3-formamide]",–,0.0115 µM,improve,significantly reduce,significantly promote,22.9 µM,15.8 µM,more than 2.7 times that of the compound 62,more than 230 times that of the equivalent dose,small inhibitory effect
